Assay results reported in ChEMBL document CHEMBL5523751, “Discovery of Novel Diaryl-Substituted Fused Heterocycles Targeting Katanin and Tubulin with Potent Antitumor and Antimultidrug Resistance Efficacy” (J Med Chem, 2024).
Values after ≈ are worked out from the molar mass of the structure shown. Active and inactive are the calls of the source. The calls are words filed in the database; no cut-off is given here.

Legend:
MCF7 [1] = experiment: Induction of cell cycle arrest in human MCF7 cells assessed as accumulation of cells at G2/M phase at 10 nM measured after 24 hrs by propidium iodide staining based flow cytometry analysis (reference value: 26%); format: functional
[2] = Acute toxicity in ICR mouse assessed as survival rate at 100 mg/kg, ip measured after 14 days relative to control; format: organism-based; details: in vivo, time 14 day
[3] = Acute toxicity in ICR mouse assessed as animal death at 100 mg/kg, ip measured after 3 to 14 days; format: organism-based; details: in vivo, time 3-14 day
MCF7 [4] = experiment: Upregulation of CDK1 expression level in human MCF7 cells at 1 to 10 nM by Western blot analysis; format: functional, cell-based; details: dose 1-10 nM
[5] = Acute toxicity in ICR mouse assessed as animal death at 150 mg/kg, ip measured after 3 to 14 days; format: organism-based; details: in vivo, time 3-14 day
[6] = MRT (0 to t) in mouse at 3 mg/kg, iv measured upto 24 hrs by LC-MS/MS analysis; format: ADME, organism-based; details: in vivo
[7] = Cmax in mouse at 3 mg/kg, iv measured upto 24 hrs by LC-MS/MS analysis; format: ADME, organism-based; details: in vivo
[8] = Water solubility of the compound at pH 7.4 by HPLC analysis; format: physicochemical
[9] = Resistance index, ratio of IC50 for antiproliferative activity against paclitaxel resistant human A2780/Taxol cells to IC50 for antiproliferative activity against human A2780 cells; format: functional
A549 = experiment: Antiproliferative activity against human A549 assessed as inhibition of cell growth measured after 48 hrs by MTT assay; format: functional, cell-based; details: A549, 48 h
MCF7 [10] = experiment: Induction of apoptosis in human MCF7 cells measured after 48 hrs by annexin-FITC and propidium iodide staining based flow cytometry analysis; format: functional, cell-based; details: dose 10-40 nM
[11] = AUC (0 to infinity) in mouse at 3 mg/kg, iv measured upto 24 hrs by LC-MS/MS analysis; format: ADME, organism-based; details: in vivo
MDA-MB-231 [12] = experiment: Inhibition of cell migration in human MDA-MB-231 cells assessed as reduction in number of cell migrated at 10 to 40 nM incubated for 24 hrs by crystal violet staining based analysis; format: functional; details: dose 10-40 nM
[13] = Acute toxicity in ICR mouse assessed as survival rate at 150 mg/kg, ip measured after 14 days relative to control; format: organism-based; details: in vivo, time 14 day
[14] = AUC (0 to t) in mouse at 3 mg/kg, iv measured upto 24 hrs by LC-MS/MS analysis; format: ADME, organism-based; details: in vivo
[15] = Acute toxicity in ICR mouse assessed as animal death at 300 mg/kg, ip measured after 2 days; format: organism-based; details: in vivo, 48 h, time 2 day
MCF7 [16] = experiment: Induction of apoptosis in human MCF7 cells assessed as upregulation of bad protein level by Western blot analysis; format: functional, cell-based; details: dose 10-40 nM
[17] = biological target: Katanin p60 ATPase-containing subunit A1 (Homo sapiens, UniProt O75449); experiment: Induction of thermal stabilization in N-terminal human Katanin p60 (8 to 229 residues) expressed in Escherichia coli Rosetta (DE3) at 10 uM by thermal shift assay
Chain of Katanin p60 ATPase-containing subunit A1 (O75449 whole entry, the tested form may be a part): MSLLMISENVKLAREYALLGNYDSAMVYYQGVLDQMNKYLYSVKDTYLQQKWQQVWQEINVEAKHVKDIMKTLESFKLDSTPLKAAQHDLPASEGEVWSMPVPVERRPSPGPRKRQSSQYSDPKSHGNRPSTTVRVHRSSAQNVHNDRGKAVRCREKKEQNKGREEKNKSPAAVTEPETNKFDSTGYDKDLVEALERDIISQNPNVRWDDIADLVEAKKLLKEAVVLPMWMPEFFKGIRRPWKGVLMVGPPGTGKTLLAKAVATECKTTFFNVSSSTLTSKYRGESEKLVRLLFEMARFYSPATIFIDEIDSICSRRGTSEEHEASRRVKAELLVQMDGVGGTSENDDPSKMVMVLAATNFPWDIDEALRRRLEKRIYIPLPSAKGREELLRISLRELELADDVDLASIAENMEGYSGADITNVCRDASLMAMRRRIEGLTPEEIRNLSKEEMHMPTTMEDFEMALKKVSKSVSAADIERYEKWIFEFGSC

MCF7 [18] = experiment: Induction of apoptosis in human MCF7 cells assessed as viable cells at 10 nM measured after 48 hrs by annexin-FITC and propidium iodide staining based flow cytometry analysis (reference value: 94.69%); format: functional; details: read-out: Activity
[19] = Toxicity in Balb/C nude mouse xenografted with A549/Taxol assessed as effect on white blood cells count at 15 mg/kg, ip measured after 14 days by biochemical assay; format: organism-based, A549/TR; details: in vivo, 336 h, time 14 day
MDA-MB-231 [20] = experiment: Inhibition of cell migration in human MDA-MB-231 cells assessed as delay in wound healing at 10 to 20 nM by inverted microscopy based analysis; format: functional; details: dose 10-20 nM
MCF7 [21] = experiment: Induction of apoptosis in human MCF7 cells assessed as upregulation of PARP-1 protein level by Western blot analysis; format: functional, cell-based; details: dose 10-40 nM
[22] = Acute toxicity in ICR mouse assessed as survival rate at 50 mg/kg, ip measured after 14 days relative to control; format: organism-based; details: in vivo, time 14 day
HCT-116 = experiment: Antiproliferative activity against human HCT-116 cells assessed as inhibition of cell growth measured after 48 hrs by MTT assay; format: functional, cell-based; details: HCT-116, 48 h
[23] = Resistance index, ratio of IC50 for antiproliferative activity against human CDDP-resistant A549 cell to IC50 for antiproliferative activity against human A549 cells; format: functional
MCF7 [24] = experiment: Induction of apoptosis in human MCF7 cells assessed as late apoptotic cells at 10 nM measured after 48 hrs by annexin-FITC and propidium iodide staining based flow cytometry analysis (reference value: 3.93%); format: functional
[25] = MRT (0 to infinity) in mouse at 3 mg/kg, iv measured upto 24 hrs by LC-MS/MS analysis; format: ADME, organism-based; details: in vivo
MDA-MB-231 [26] = experiment: Downregulation of MMP-9 expression in human MDA-MB-231 cells at 5 to 40 nM by Western blot analysis; format: functional, cell-based; details: dose 5-40 nM
DU-145 = experiment: Antiproliferative activity against human DU-145 assessed as inhibition of cell growth measured after 48 hrs by MTT assay; format: functional, cell-based; details: DU-145, 48 h
[27] = AUC (0 to infinity) in mouse at 15 mg/kg, po measured upto 24 hrs by LC-MS/MS analysis; format: ADME, organism-based; details: in vivo
[28] = Cmax in mouse at 15 mg/kg, po measured upto 24 hrs by LC-MS/MS analysis; format: ADME, organism-based; details: in vivo
[29] = Acute toxicity in ICR mouse assessed as survival rate at 200 mg/kg, ip measured after 14 days relative to control; format: organism-based; details: in vivo, time 14 day
[30] = Toxicity in Balb/C nude mouse assessed as drug tolerance at 15 mg/kg, ip measured upto 2 weeks; format: organism-based; details: in vivo, 336 h
A549/TR = experiment: Antiproliferative activity against paclitaxel resistant human A549/Taxol cells assessed as inhibition of cell growth measured after 48 hrs by MTT assay; format: functional, cell-based
Tubulin (Homo sapiens) = Tubulin (Homo sapiens) (UniProt P68371+Q9H4B7+P0DPH7+P68366+Q13509+Q71U36+P04350+Q3ZCM7+P07437+P68363+Q9BQE3+Q6PEY2+Q13885+Q9BVA1+Q9BUF5); experiment: Inhibition of microtubule assembly in human MCF7 cells assessed as appearance of disorganized fibrous microtubule structure at 1 to 10 nM incubated for 24 hrs by immunofluorescence assay; format: cell-based; details: dose 1-10 nM
[31] = AUC (0 to t) in mouse at 15 mg/kg, po measured upto 24 hrs by LC-MS/MS analysis; format: ADME, organism-based; details: in vivo
MCF7 [32] = experiment: Upregulation of cyclin-B1 expression level in human MCF7 cells at 1 to 10 nM by Western blot analysis; format: functional, cell-based; details: dose 1-10 nM
[33] = Resistance index, ratio of IC50 for antiproliferative activity against cisplatin resistant human A2780/CDDP cells to IC50 for antiproliferative activity against human A2780 cells; format: functional
MDA-MB-231 [34] = experiment: Antitumor activity against human MDA-MB-231 cells xenografted in BALB/c nude mouse model assessed as tumor weight reduction at 15 mg/kg, ip measured after 14 days relative to control; format: functional; set-up: scale not given: the % may be the effect or the level left; details: time 14 day
MDA-MB-231 [35] = experiment: Antiproliferative activity against human MDA-MB-231 cells assessed as inhibition of cell growth measured after 48 hrs by MTT assay; format: functional, cell-based; details: MDA-MB-231, 48 h

With `COc1cc(-n2cnc3ccc(-c4ccc(C)c(N)c4)nc32)cc(OC)c1OC` as the molecule, how does the Activity (MCF7 [1]) read?
Its Activity is ~67%.

What about the survival at 336 h [2] of the same molecule?
Its survival at 336 h is 80%.

And the Activity [3]?
The Activity was “Non-Toxic”.

What about the Activity (MCF7 [4]) of the same molecule?
Its Activity is “Active”.

And the Activity [5]?
Its Activity is “Non-Toxic”.

And the MRT last at 24 h [6]?
Its MRT last at 24 h is 29.4 min.

And the Cmax [7]?
Its Cmax is 1650 ng/mL.

And the solubility [8]?
The solubility was 30 µg/mL (≈ 76.8 µM).

What about the “Ratio IC50” value [9] of the same molecule?
Its value is 1.54.

And the IC50 (A549)?
Its IC50 is 1 nM.

And the Activity (MCF7 [10])?
Its Activity is “Dose-Dependent Effect”.

And the AUC(0-inf) [11]?
Its AUC(0-inf) is 668 ng·h/mL.

What about the inhibition (MDA-MB-231 [12]) of the same molecule?
Its inhibition is “Active”.

And the survival at 336 h [13]?
Its survival at 336 h is 50%.

What about the AUC(0-t) at 24 h [14] of the same molecule?
The AUC(0-t) at 24 h was 666 ng·h/mL.

What about the Activity [15] of the same molecule?
The Activity was “Non-Toxic”.

And the Activity (MCF7 [16])?
Its Activity is “Dose-Dependent Effect”.

What about the Activity [17] of the same molecule?
Its Activity is “Active”.

And the viability at 0.01 µM (MCF7 [18])?
Its viability at 0.01 µM is 53.3%.

What about the Activity [19] of the same molecule?
The Activity was “Non-Toxic”.

And the inhibition (MDA-MB-231 [20])?
Its inhibition is “Active”.

What about the Activity (MCF7 [21]) of the same molecule?
Its Activity is “Dose-Dependent Effect”.

What about the survival at 336 h [22] of the same molecule?
Its survival at 336 h is 100%.

And the IC50 (HCT-116)?
The IC50 was 3 nM.

What about the “Ratio IC50” value [23] of the same molecule?
The value was 1.81.

What about the Activity (MCF7 [24]) of the same molecule?
The Activity was 16.7%.

And the MRT inf [25]?
The MRT inf was 31.2 min.

What about the Activity (MDA-MB-231 [26]) of the same molecule?
Its Activity is “Active”.

What about the IC50 (DU-145) of the same molecule?
The IC50 was 4 nM.

And the AUC(0-inf) [27]?
Its AUC(0-inf) is 1340 ng·h/mL.

What about the Cmax [28] of the same molecule?
Its Cmax is 1200 ng/mL.

What about the survival at 336 h [29] of the same molecule?
Its survival at 336 h is 40%.

And the Activity [30]?
Its Activity is “Non-Toxic”.

What about the IC50 (A549/TR) of the same molecule?
The IC50 was 1.6 nM.

What about the inhibition (Tubulin (Homo sapiens)) of the same molecule?
Its inhibition is “Active”.

What about the AUC(0-t) at 24 h [31] of the same molecule?
Its AUC(0-t) at 24 h is 1240 ng·h/mL.

And the Activity (MCF7 [32])?
The Activity was “Active”.

And the “Ratio IC50” value [33]?
The value was 1.35.

And the Activity (MDA-MB-231 [34])?
Its Activity is 84%.

What about the IC50 (MDA-MB-231 [35]) of the same molecule?
The IC50 was 20 nM.
